Data published in patent publication US9637469B2, “Pyridine derivative” (Teijin Pharma Limited, priority 2012, dated 2017).

Biological target: T1, human URAT1 (Homo sapiens, UniProt Q96S37)
T1 construct: Full-length cDNA of human URAT1 (hURAT1)
T1 sequence (Q96S37 1-553): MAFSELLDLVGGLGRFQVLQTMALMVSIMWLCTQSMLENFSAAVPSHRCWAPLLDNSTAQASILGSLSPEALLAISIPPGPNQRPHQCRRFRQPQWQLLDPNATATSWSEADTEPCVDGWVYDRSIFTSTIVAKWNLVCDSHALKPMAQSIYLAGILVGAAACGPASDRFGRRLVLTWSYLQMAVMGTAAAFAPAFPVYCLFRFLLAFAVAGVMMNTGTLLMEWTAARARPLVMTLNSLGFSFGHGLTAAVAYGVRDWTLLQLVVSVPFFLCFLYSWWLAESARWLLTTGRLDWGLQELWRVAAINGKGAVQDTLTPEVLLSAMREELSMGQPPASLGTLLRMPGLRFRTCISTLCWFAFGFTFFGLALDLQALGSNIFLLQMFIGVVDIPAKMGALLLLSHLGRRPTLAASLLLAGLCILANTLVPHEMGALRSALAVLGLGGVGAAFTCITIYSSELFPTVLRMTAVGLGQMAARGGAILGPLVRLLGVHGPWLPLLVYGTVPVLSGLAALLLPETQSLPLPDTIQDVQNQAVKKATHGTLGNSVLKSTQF
Assay: Test for inhibition of uric acid transport using human URAT1-expressing cells;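 further: three stars up to 0.2 µM two stars 0.2-2 µM one star 2-20 µM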
Type: cell-based
Settings: HEK 293 cells expressing human URAT1; 14C-labeled uric acid 25 μM; uptake 37° C. for 5 min
Experimental: (1) Preparation of the Test Compound
The test compound was dissolved in DMSO (produced by Sigma) to a concentration of 20 mM and was subsequently used by diluting to desired concentrations.
(2) Test for Inhibition of Uric Acid Transport Using Human URAT1-Expressing Cells;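 further: three stars up to 0.2 µM two stars 0.2-2 µM one star 2-20 µM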
Full-length cDNA of human URAT1 (hURAT1) (produced by OriGene Technologies, Inc., NCBI Reference Sequence: NM 144585) was subcloned into an expression vector, pCMV6-Kan/Neo (produced by OriGene Technologies, Inc.), and hURAT1 gene was transfected into human embryonic kidney-derived cells (HEK 293 cells) by liposome method using Lipofectamine 2000 (produced by Invitrogen Corporation), whereupon HEK 293 cells expressing human URAT1 gene were screened by its Geneticin resistance. By a method similar to the following method, functional expression of human URAT1 gene was confirmed by using transport of ^14C-labeled uric acid into the cells as an index.
The HEK 293 cells expressing human URAT1 were seeded in a 24-well cell culture dish to a density of 3×10^5 cells/mL/well and were cultured in Dulbecco's modified Eagle's medium (D-MEM medium) containing 10% fetal bovine serum at 37° C. for 2 days. Thereafter, the following test for inhibition of uric acid transport was performed.
After the medium was removed by aspiration from each well, the medium was replaced with a solution obtained by substituting NaCl in Hank's Balanced Salt Solution (HBSS) with Na gluconate (hereinafter, HBSS/Na-gluconate) and the cells were preincubated at 37° C. for about 10 minutes. HBSS/Na-gluconate was removed by aspiration and a ^14C-uric acid solution that was warmed at 37° C. in advance containing various concentrations of the Example compound described in (1) and a radioactive ligand (^14C-labeled uric acid; final concentration 25 μM) was added and an uptake reaction was carried out by incubating at 37° C. for 5 min. After the incubation, ^14C-labeled uric acid solution was removed by aspiration and the cells were washed three times with ice-cold HBSS. The HEK 293 cells expressing human URAT1 were lysed in 0.2 mol/L aqueous NaOH (hereafter, the cell sample) and the cell samples were collected. The cell sample and a liquid scintillation liquid, ULTIMA GOLD (produced by PerkinElmer, Inc.) were mixed and the radioactivity was measured by a liquid scintillation counter (Beckman Coulter, Inc.).
The uric acid transport rate of the Example compound at each concentration (% of control uptake) was calculated relative to the radioactivity (radioactivity in human URAT1 expressing HEK 293 cells without addition of the Example compound (DMSO addition)) showing URAT1-specific uric acid transport as 100%, and the concentration (IC50) of the Example compound at which the uric acid transport rate is inhibited by 50% was determined. In addition, the symbols (*, **, and ***) in the table represent the following inhibitory activity values: • IC50≦_ 0.2 μM: *** • 0.2 μM<IC50≦2 μM: ** • 2 μM<IC50≦20 μM: *

Row | SMILES | Inhibitory Activity (IC50 of uric acid transport inhibition)
1 | Cc1nc(-c2cccnc2)n(Cc2cc(F)ccc2Cl)c1C(=O)O [Compound A41, 1-(2-chloro-5-fluorobenzyl)-4-methyl-2-(pyridin-3-yl)-1H-imidazole-5-carboxylic acid] | * *
2 | O=C(O)c1c(C2CC2)nc(-c2cccnc2)n1Cc1csc2cccc(C(F)(F)F)c12 [Compound A35, 4-cyclopropyl-2-(pyridin-3-yl)-1-((4-(trifluoromethyl)benzo[b]thiophen-3-yl)methyl)-1H-imidazole-5-carboxylic acid] | * *
3 | C=Cc1nc(-c2cccnc2)n(Cc2cc(Cl)ccc2Cl)c1C(=O)O [Compound A102, 1-(2,5-dichlorobenzyl)-2-(pyridin-3-yl)-4-vinyl-1H-imidazole-5-carboxylic acid] | * *
4 | CCc1nc(-c2cncc(Cl)c2)n(Cc2cccc3ccccc23)c1C(=O)O [Compound A149, 2-(5-chloropyridin-3-yl)-4-ethyl-1-(naphthalen-1-ylmethyl)-1H-imidazole-5-carboxylic acid] | * * *
5 | Cc1nc(-c2cccnc2F)n(Cc2cc(Cl)ccc2Cl)c1C(=O)O [Compound A160, 1-(2,5-dichlorobenzyl)-2-(2-fluoropyridin-3-yl)-4-methyl-1H-imidazole-5-carboxylic acid] | * *
6 | Cc1nc(Oc2ccccn2)n(Cc2cc(Cl)ccc2Cl)c1C(=O)O [Compound A247, 1-(2,5-dichlorobenzyl)-4-methyl-2-(pyridin-2-yloxy)-1H-imidazole-5-carboxylic acid] | * *
7 | O=C(O)c1ccc(-c2cccnc2)n1Cc1csc2cccc(Br)c12 [Compound B3, 1-((4-bromobenzo[b]thiophen-3-yl)methyl)-2-(pyridin-3-yl)-1H-pyrrole-5-carboxylic acid] | * * *
8 | CS(=O)(=O)NC(=O)c1ccc(-c2cccnc2)n1Cc1cc(Cl)ccc1Cl [Compound B28, 1-(2,5-dichlorobenzyl)-N-(methylsulfonyl)-2-(pyridin-3-yl)-1H-pyrrole-5-carboxamide] | * * *
9 | Cc1nc(-c2cccnc2)n(Cc2cc(F)cc3ccsc23)c1C(=O)O [Compound A85, 1-((5-fluorobenzo[b]thiophen-7-yl)methyl)-4-methyl-2-(pyridin-3-yl)-1H-imidazole-5-carboxylic acid] | * * *
10 | Cc1ccc(Oc2nc(-c3cccnc3)n(Cc3cc(Cl)ccc3Cl)c2C(=O)O)cc1 [Compound A99, 1-(2,5-dichlorobenzyl)-2-(pyridin-3-yl)-4-(p-tolyloxy)-1H-imidazole-5-carboxylic acid] | * * *
11 | Cc1ncccc1Oc1nc(C)c(C(=O)O)n1Cc1cc(Cl)ccc1Cl [Compound A252, 1-(2,5-dichlorobenzyl)-4-methyl-2-((2-methylpyridin-3-yl)oxy)-1H-imidazole-5-carboxylic acid] | * * *
12 | Cc1nc(-c2cccnc2)n(Cc2cc(F)cc(Cl)c2)c1C(=O)O [Compound A76, 1-(3-chloro-5-fluorobenzyl)-4-methyl-2-(pyridin-3-yl)-1H-imidazole-5-carboxylic acid] | * *
13 | Cc1nc(-c2cncc(OCC3CCCCC3)c2)n(Cc2cc(Cl)ccc2Cl)c1C(=O)O [Compound A189, 2-(5-(cyclohexylmethoxy)pyridin-3-yl)-1-(2,5-dichlorobenzyl)-4-methyl-1H-imidazole-5-carboxylic acid] | * *
14 | O=C(O)c1c(I)nc(-c2cccnc2)n1Cc1cc(Cl)ccc1Cl [Compound A90, 1-(2,5-dichlorobenzyl)-4-iodo-2-(pyridin-3-yl)-1H-imidazole-5-carboxylic acid] | * * *
15 | O=C(NS(=O)(=O)C1CC1)c1ccc(-c2cncc(F)c2)n1Cc1cc(Cl)ccc1Cl [Compound B27, N-(cyclopropylsulfonyl)-1-(2,5-dichlorobenzyl)-2-(5-fluoropyridin-3-yl)-1H-pyrrole-5-carboxamide] | * * *
16 | Cc1nc(-c2cncc([N+](=O)[O-])c2)n(Cc2cc(Cl)ccc2Cl)c1C(=O)O [Compound A167, 1-(2,5-dichlorobenzyl)-4-methyl-2-(5-nitropyridin-3-yl)-1H-imidazole-5-carboxylic acid] | * * *
17 | O=C1OCc2nc(-c3cncc(Cl)c3)n(Cc3cc(Cl)ccc3Cl)c21 [Compound A221, 2-(5-chloropyridin-3-yl)-1-(2,5-dichlorobenzyl)-1H-furo[3,4-d]imidazol-6(4H)-one] | * * *
18 | CCOc1cncc(-c2nc(C)c(C(=O)O)n2Cc2cc(Cl)ccc2Cl)c1 [Compound A174, 1-(2,5-dichlorobenzyl)-2-(5-ethoxypyridin-3-yl)-4-methyl-1H-imidazole-5-carboxylic acid] | * * *
19 | Cc1cncc(-c2nc(C(C)(C)O)c(C(=O)O)n2Cc2cc(Cl)ccc2Cl)c1 [Compound A214, 1-(2,5-dichlorobenzyl)-4-(2-hydroxypropan-2-yl)-2-(5-methylpyridine-3-yl)-1H-imidazole-5-carboxylic acid] | * * *
20 | CC(C)c1nc(-c2cccnc2)n(Cc2csc3cccc(Cl)c23)c1C(=O)O [Compound A37, 1-((4-chlorobenzo[b]thiophen-3-yl)methyl)-4-isopropyl-2-(pyridin-3-yl)-1H-imidazole-5-carboxylic acid] | * * *

Same assay, conditions: HEK 293 cells expressing human URAT1; 14C-labeled uric acid 25 μM; uptake 37° C. for 5 min; read-out: Inhibitory Activity (IC50 of uric acid transport inhibition)

Row | SMILES | IC50
21 | Cc1cncc(-c2nc(C)c(C(=O)O)n2C(C)c2cc(Cl)ccc2Cl)c1 (stereo not shown) [Compound A224] | 2 to 20 µM
22 | CC(C)(Sc1ncc(-c2cncc(F)c2)n1Cc1cc(Cl)ccc1Cl)C(=O)O [Compound A265] | 2 to 20 µM
23 | Cc1nc(-c2cncc(OCCO)c2)n(Cc2cc(Cl)ccc2Cl)c1C(=O)O [Compound A186] | 2 to 20 µM
24 | CC[S+]([O-])c1nc(-c2cccnc2)n(Cc2cc(Cl)ccc2Cl)c1C(=O)O (stereo not shown) [Compound A107] | 2 to 20 µM
25 | COc1ccc(-c2nc(C)c(C(=O)O)n2Cc2cccc3ccccc23)c(OC)n1 [Compound A47] | 2 to 20 µM
26 | O=C(O)c1c(OCCO)nc(-c2cccnc2)n1Cc1cc(Cl)ccc1Cl [Compound A97] | 2 to 20 µM
27 | CCc1ccccc1Cn1c(-c2cccnc2)nc(C)c1C(=O)O [Compound A59] | 2 to 20 µM
28 | COc1cncc(-c2nc(C)c(C(=O)O)n2Cc2cccc3ccccc23)c1 [Compound A120] | 2 to 20 µM
